{
  "source": "patent US6060448A",
  "about": "“Casein fragments having growth promoting activity” (Pepsyn Limited, priority 1995, dated 2000)",
  "system": "Rama 27 cells",
  "test": "incorporation of [3H] thymidine into the DNA of Rama 27 cells (growth promoting / mitogenic assay)",
  "type": "cell-based",
  "conditions": "Rama 27 rat mammary fibroblast cell line",
  "method": "The growth promoting activity of different milk types was determined by precipitating caseins and assaying the supernatants for their ability to stimulate the incorporation of [3H] thymidine into the DNA of Rama 27 cells by known methodology (Smith et al, 1984).\nThe protein fractions A,B,C, of the casein digest where assayed for their ability to stimulate the incorporation of [3H] thymidine into the DNA of Rama 27 cells exactly as described previously.\nIn table 1, * indicates one unit of activity is defined as the amount of protein required to produce half maximal stimulation compared with 1% FCS when added to R27 cells.",
  "data": [
    {"substance": "PDGF", "values": [
      {"measurement": "growth promoting activity (incorporation of 3H-thymidine into DNA)", "value": "not significantly stimulated"}
    ]}
  ]
}
